Structures can show the parent of a compound that is named as a salt.

In paper PMC6792352, “Limited Chemical Structural Diversity Found to Modulate Thyroid Hormone Receptor in the Tox21 Chemical Library” (Environmental Health Perspectives, 2019) one finds CC50 data, which are given here for 61 compounds.

This data set can be described thus: in vitro. The settings on record: rat, gh3-tre-luc cells.

As a reminder, the CC50 is the concentration giving 50% cytotoxicity. On to `CN(C)[C@@H]1C(=O)C(C(N)=O)=C(O)[C@@]2(O)C(=O)C3=C(O)c4c(O)cccc4[C@@](C)(O)[C@H]3[C@H](O)[C@@H]12` [Oxytetracycline], for which, for the setting “AC50 (uM) modified / 1000”, the CC50 at 24 h is more than 90 µM. As for `CC(=O)CCC(=O)O` [4-Oxopentanoic acid], where the note is “AC50 (uM) modified / 1000”, the CC50 at 24 h was more than 100 µM. For the compound `CCN(CC)CCNC(=O)c1ccc(N)cc1` [Procainamide hydrochloride], the CC50 at 24 h (AC50 (uM) modified / 1000) was more than 90 µM. `O=C(CC(C(=O)OC1CCCCC1)S(=O)(=O)O)OC1CCCCC1` (stereo not shown) [Dicyclohexyl sodium sulfosuccinate] came in with a cytotoxic concentration (CC50) at 24 h (AC50 (uM) modified / 1000) of more than 90 µM. The same measure, in the same setting: the same measure for `C=C1[C@H](CO)[C@@H](O)C[C@@H]1n1cnc2c(=O)[nH]c(N)nc21` [Entecavir]: more than 50 µM; for `Cc1ccccc1N1C(=O)c2cc(S(N)(=O)=O)c(Cl)cc2NC1C` (stereo not shown) [Metolazone]: more than 50 µM. The compound `CN(C)CCOC(=O)C(c1ccccc1)C1(O)CCCC1` (stereo not shown) [Cyclopentolate hydrochloride] gave a CC50 at 24 h (AC50 (uM) modified / 1000) of more than 50 µM. For `CN(C)Cc1ccccc1O` [2-((Dimethylamino)methyl)phenol], the CC50 at 24 h (AC50 (uM) modified / 1000) was more than 90 µM. Still for that read-out and setting: the same measure for `CCCCCOC(=O)Nc1nc(=O)n([C@@H]2O[C@H](C)[C@@H](O)[C@H]2O)cc1F` [Capecitabine]: more than 50 µM; for `CCN(CC)c1ccc(N)cc1` [N,N-Diethylbenzene-1,4-diamine]: 64.7 µM. Where the note is “AC50 (uM) modified / 1000, Tox21_110001=Tox21_202862, viability, 1 nM T3 present, 24 h”, `CCCCCCI` [1-Iodohexane] returned a CC50 at 24 h of more than 90 µM.

Under “AC50 (uM) modified / 1000”, `O=C(O[C@H]1C[C@H]2CC[C@@H](C1)[N+]21CCCC1)C(O)(c1ccccc1)c1ccccc1` [Trospium chloride] came in with a CC50 at 24 h of more than 50 µM. The compound `CC(C)(CO)C(O)C(=O)NCCCO` (stereo not shown) [Panthenol] registered a CC50 at 24 h (AC50 (uM) modified / 1000) of more than 90 µM.

`CCC(=O)Nc1ccc(Cl)c(Cl)c1` [Propanil] came in with a CC50 at 24 h (AC50 (uM) modified / 1000) of more than 90 µM. In turn, `CCN(CCO)c1cccc(C)c1` [2-(N-Ethyl-m-toluidino)ethanol] displayed a CC50 at 24 h (AC50 (uM) modified / 1000) of more than 90 µM. Take `C/C(=N\NC(=O)Nc1cc(F)cc(F)c1)c1ncccc1C(=O)O` [Diflufenzopyr-sodium]: where the note is “AC50 (uM) modified / 1000, Tox21_110001=Tox21_300997, viability, 1 nM T3 present, 24 h”, the CC50 at 24 h was more than 90 µM.

In the case of `CC(C)Oc1cccc(NC(=O)c2ccccc2C(F)(F)F)c1` [Flutolanil], the CC50 at 24 h (AC50 (uM) modified / 1000) was more than 90 µM. Still for that read-out and setting: the same measure for `CCOS(=O)(=O)OCC` [Diethyl sulfate]: more than 90 µM; for `CCC(CO)(CO)COCC(CC)(CO)CO` [2,2'-(Oxydimethanediyl)bis(2-ethylpropane-1,3-diol)]: more than 90 µM; for `N#CNC(=N)N` [Cyanoguanidine]: more than 90 µM. For the setting “AC50 (uM) modified / 1000”, `CCCOc1nn(C(=O)NS(=O)(=O)c2ccccc2C(=O)OC)c(=O)n1C` [Propoxycarbazone-sodium] yielded a CC50 at 24 h of more than 90 µM. Same read-out and setting: the same measure for `CC(=O)c1sc(C)nc1C` [5-Acetyl-2,4-dimethylthiazole]: more than 90 µM; for `CC(=O)c1ccc2c(c1)N(CCCN(C)C)c1ccccc1S2` [Acetopromazine maleate]: 9.14 µM. On the same count and under the same terms, the same measure for `C[Se]CC[C@H](N)C(=O)O` [Selenomethionine]: more than 50 µM; for `N#Cc1nc(Cl)c(Cl)c(Cl)c1Cl` [3,4,5,6-Tetrachloropyridine-2-carbonitrile]: 3 µM. The same measure, in the same setting: the same measure for `C=CC(=C)CCC=C(C)C` [Myrcene]: more than 90 µM; for `N=C(N)c1ccc(OCCCOc2ccc(C(=N)N)cc2)cc1` [Propamidine]: more than 50 µM; for `CCOS(C)(=O)=O` [Ethyl methanesulfonate]: more than 90 µM. In turn, `CC(C)(C)N` [tert-Butylamine] yielded a half-maximal cytotoxic concentration (CC50) at 24 h (AC50 (uM) modified / 1000) of more than 90 µM. For `COC(C)(C)CCC[C@H](C)C/C=C/C(C)=C/C(=O)OC(C)C` [S-Methoprene], for the setting “AC50 (uM) modified / 1000”, the CC50 at 24 h stood at 70.9 µM. In turn, `C#CC(C)(O)CC` (stereo not shown) [3-Methyl-1-pentyn-3-ol] showed a CC50 at 24 h (AC50 (uM) modified / 1000, Tox21_110001=Tox21_112294, viability, 1 nM T3 present, 24 h) of more than 50 µM. In the case of `COC(=O)c1cc(Oc2ccc(Cl)cc2Cl)ccc1[N+](=O)[O-]` [Bifenox], under “AC50 (uM) modified / 1000”, the CC50 at 24 h was more than 90 µM. `O=C(c1ccccc1)c1cc(Cl)ccc1O` [(5-Chloro-2-hydroxyphenyl)phenylmethanone] registered a half-maximal cytotoxic concentration (CC50) at 24 h (AC50 (uM) modified / 1000) of more than 90 µM. With `CNCCC(Oc1ccc(C(F)(F)F)cc1)c1ccccc1` (stereo not shown) [Fluoxetine hydrochloride], for the setting “AC50 (uM) modified / 1000”, the CC50 at 24 h amounted to 10.3 µM. As to `CCN1CCCC1=O` [1-Ethyl-2-pyrrolidinone], for the setting “AC50 (uM) modified / 1000”, the CC50 at 24 h was more than 90 µM. The same measure, in the same setting: the same measure for `COc1ccc(N)c(OC)c1` [2,4-Dimethoxyaniline hydrochloride]: more than 50 µM; for `CSC1=N[C@@](C)(c2ccccc2)C(=O)N1Nc1ccccc1` [Fenamidone]: more than 90 µM; for `CC1(C)S[C@@H]2[C@H](N)C(=O)N2[C@H]1C(=O)O` [6-Aminopenicillanic acid]: more than 20 µM. Take `CCCC(C)C(O)CC` (stereo not shown) [4-Methyl-3-heptanol]: under “AC50 (uM) modified / 1000”, the CC50 at 24 h is more than 90 µM.

Compound `CC(=N)S` [Thioacetamide] displayed a CC50 at 24 h (AC50 (uM) modified / 1000) of more than 90 µM. On the same count and under the same terms, the same measure for `CCCCCC(C)O` (stereo not shown) [2-Heptanol]: more than 90 µM. For `C[N+](C)(C)C` [Tetramethylammonium chloride], for the setting “AC50 (uM) modified / 1000, Tox21_110001=Tox21_200660, viability, 1 nM T3 present, 24 h”, the CC50 at 24 h is more than 90 µM. Turning to `O=C(O)c1ccccc1[N+](=O)[O-]` [2-Nitrobenzoic acid], the CC50 at 24 h (AC50 (uM) modified / 1000) is more than 90 µM. Same read-out and setting: the same measure for `CC(C)C(O)C(C)(C)CO` (stereo not shown) [2,2,4-Trimethyl-1,3-pentanediol]: more than 90 µM; for `O=c1c(O)c(-c2ccc(O)c(O)c2)oc2cc(O)cc(O)c12` [Quercetin dihydrate]: 57 µM; for `O=C1c2ccccc2C(=O)c2c(O)c(O)cc(O)c21` [Purpurin]: 71.9 µM. On the same count and under the same terms, the same measure for `ClCCl` [Dichloromethane]: more than 90 µM. Under “AC50 (uM) modified / 1000”, `CCCCCCCCOC(C)=O` [Octyl acetate] registered a CC50 at 24 h of more than 90 µM. Same read-out and setting: the same measure for `CC/C=C/C#N` [2-Pentenenitrile]: more than 90 µM; for `CCCCCCOC(=O)CCCCC(=O)OCCCCCC` [Dihexyl hexanedioate]: more than 90 µM. Same read-out and setting: the same measure for `CC[C@H]1C[C@@H]2C[C@H]3c4[nH]c5ccc(OC)cc5c4CCN(C2)[C@@H]13` [Ibogaine hydrochloride]: 62.4 µM. Under “AC50 (uM) modified / 1000”, `CC(CN(C)C)CN1c2ccccc2S(=O)(=O)c2ccccc21` (stereo not shown) [Oxomemazine hydrochloride] gave a CC50 at 24 h of 37.7 µM.

`CN1CCN(C2Cc3ccccc3Sc3ccc(Cl)cc32)CC1` (stereo not shown) [Octoclothepine maleate]: the CC50 at 24 h (AC50 (uM) modified / 1000) was found to be 7.55 µM. The compound `CCn1c2ccccc2c2cc(N)ccc21` [3-Amino-9-ethylcarbazole hydrochloride] returned a CC50 at 24 h (AC50 (uM) modified / 1000) of more than 90 µM. In turn, `O=[N+]([O-])c1ccc(O)c2ncccc12` [Nitroxoline] had a CC50 at 24 h (AC50 (uM) modified / 1000) of 4.94 µM. In turn, `CCOC(=O)COc1ccc2c(c1)C[C@@H](NC[C@H](O)c1cccc(Cl)c1)CC2` [SR58611] gave a CC50 at 24 h (AC50 (uM) modified / 1000) of 24.3 µM. Still for that read-out and setting: the same measure for `CN1CCCC(CC2c3ccccc3Sc3ccccc32)C1` (stereo not shown) [Metixene hydrochloride]: 8.17 µM; for `COC(=O)CC(C)=O` [Methyl acetoacetate]: more than 90 µM. Take `N#CNC#N` [Cyanamide,cyano-,sodium salt]: the CC50 at 24 h (AC50 (uM) modified / 1000, Tox21_110001=Tox21_202811, viability, 1 nM T3 present, 24 h) was more than 90 µM.

Under “AC50 (uM) modified / 1000”, `CC(C)CCO` [Isopentyl alcohol] showed a CC50 at 24 h of more than 90 µM.

Where the note is “AC50 (uM) modified / 1000”, `FC(F)(F)C(Cl)(Cl)Cl` [1,1,1-Trichloro-2,2,2-trifluoroethane] gave a half-maximal cytotoxic concentration (CC50) at 24 h of more than 90 µM.
